Measurements: US20250059139A1, “COMPOUNDS FOR TREATMENT OF CANCER” (THE JOHNS HOPKINS UNIVERSITY, priority 2021, published 2025)

Legend:
thymus = assay: AHR agonist induced thymus regression in FVB male mice; assay type: in vivo, mouse
Experimental: To evaluate AHR agonist induced thymus regression, groups of five 4-week old FVB male mice from Jackson Laboratory were treated with either vehicle, Linomide, TasQ, or its analogs daily by orally gavage for 2 weeks and then the thymus removed and weighted.
(§1) Oral Drug treatment. TasQ at the indicated dose was initially dissolved with equal molar 1 N sodium hydroxide. This solution was diluted with sterile water and the mixture stirred for 1 hr. The pH was then adjusted with 1 N HCl to 8.9 and 200 μL given daily via oral gavage.
This means that in the clinical setting, dose-escalation above 1 mg/d of TasQ as needed to reach this >2 μM blood level for optimal anti-cancer efficacy will also enhance unwanted off-target AHR induction. Therefore, a medicinal chemical approach was undertaken to identify third generation quinoline-3-carboxamide analogs with increased HDAC4 inhibition, but with reduced AHR agonism. The approach taken is based upon the earlier SPR analysis documenting that TasQ linked to the surface chip via its aniline-N is a potent binder of HDAC4. Thus, a series of quinoline-3-carboxamide analogs were synthesized focusing upon adduct changes at the aniline-N. These analogs were synthesized as described in Example 1, and were initially screened for their AHR agonist activity using the in vitro human cell-based ARE-driven luciferase reporter gene assay (Table 3).

[1] = test system: CWR22-RH human prostate cancer PDXs; assay: In vivo growth of CWR22-RH xenografts in castrate NSG male mice; settings: castrate mice treated orally over a 3 week period, 10 mg/kg/d, n = 5/group
Excerpt: Prostate Cancer Models. The source, history, and characteristics of the human prostate cancer cell lines and PDXs used, as well as cell culture conditions for their in vitro maintenance and the in vivo protocol for xenograft growth in triple immune-deficient NSG (i.e. NOD.Cg-PrkdcScidIl2rgtmlWji/Szj), adult (>8 week old) male mice obtained from the Sidney Kimmel Comprehensive Cancer Center (SKCCC) Animal Core Facility are described previously (Isaacs 2013; Brennen et al. JCI Insight. 2021, 6(8):e146827; Zhu et al. Oncogene 2020, 39(45): 6935-6949). Similar information concerning the TRAMP-C2 and B6CaP mouse prostate cancers originating in a C57BL/6J male mice are described previously (Foster et al. Cancer Res. 1997, 57: 3325-3330; Simons et al. Oncotarget. 2019, 10(64):6845-6854). In vitro growth curves were determined as described (Isaacs 2013). In vivo growth response to oral daily TasQ (10 mg/kg/d) of TRAMP-C2 mouse prostate cancers was evaluated in C57BL/6J syngeneic wild type vs. NOX-2 vs. iNOS null male mice obtained from Jackson Laboratory (Bar Harbor, ME). Growth response to oral daily TasQ (10 mg/kg/d) of TRAMP-C2 and B6CaP mouse prostate cancers was also evaluated in S100A9 null C57BL′6J male mice obtained from Dmitry Gabrilovich (Wistar Institute). All lines were mycoplasma negative using the MycoSensor PCR Assay kit (Agilent Technologies) and genetically authenticated within the last 6 months using short tandem repeat profiling conducted by the Johns Hopkins Genetic Resource Core Facility. In vitro growth curves were determined as described (Isaacs 2013). Growth response to daily oral TasQ vs. ESATA-20 (both at 10 mg/kg/d) of Myc-CaP-CR mouse prostate cancer was evaluated in syngeneic FVB/NJ castrate male mice from Jackson Laboratory. Animal studies were conducted according to animal protocols approved by Johns Hopkins Animal Care and Use Committee. Tumor volume measurements were as described previously (id.). In vivo experiments were repeated multiple independent times for each model used with 3-5 mice per treatment grouping.
as §1
Due to these combined effects, maximal growth inhibition of CWR22-RH, a castration-resistant prostate cancer patient-derived xenograft (PDX), is obtained as maintenance therapy with oral daily dosing of ≥5 mg/kg/d (FIG. 1). […] Previous studies documented that in vitro treatment of human prostate cancer cells (LNCaP) with 1-10 μM TasQ rapidly (i.e., ≤1 day) induces the transcription of a series of AHR target genes (e.g., Cyp1a1, Cyp1b1, AHRR, TPARP, GDF15) (Olsson 2010). […]

[2] = test system: LvCaP-3 human prostate cancer PDXs; assay: In vivo growth of LvCaP-3 xenografts in castrate hosts; settings: daily oral 10 mg/kg
Excerpt: Prostate Cancer Models. The source, history, and characteristics of the human prostate cancer cell lines and PDXs used, as well as cell culture conditions for their in vitro maintenance and the in vivo protocol for xenograft growth in triple immune-deficient NSG (i.e. NOD.Cg-PrkdcScidIl2rgtmlWji/Szj), adult (>8 week old) male mice obtained from the Sidney Kimmel Comprehensive Cancer Center (SKCCC) Animal Core Facility are described previously (Isaacs 2013; Brennen et al. JCI Insight. 2021, 6(8):e146827; Zhu et al. Oncogene 2020, 39(45): 6935-6949). […] In vitro growth curves were determined as described (Isaacs 2013). In vivo growth response to oral daily TasQ (10 mg/kg/d) of TRAMP-C2 mouse prostate cancers was evaluated in C57BL/6J syngeneic wild type vs. NOX-2 vs. iNOS null male mice obtained from Jackson Laboratory (Bar Harbor, ME). Growth response to oral daily TasQ (10 mg/kg/d) of TRAMP-C2 and B6CaP mouse prostate cancers was also evaluated in S100A9 null C57BL′6J male mice obtained from Dmitry Gabrilovich (Wistar Institute). […] In vitro growth curves were determined as described (Isaacs 2013). Growth response to daily oral TasQ vs. ESATA-20 (both at 10 mg/kg/d) of Myc-CaP-CR mouse prostate cancer was evaluated in syngeneic FVB/NJ castrate male mice from Jackson Laboratory. […]

fl-HDAC4 = molecular target: T1, fl-HDAC4 (Homo sapiens, UniProt P56524); assay: HDAC4 enzymatic assay with Lys(Tfa)-AMC substrate; assay type: biochemical
T1 construct: Full-length (fl) [A.A. 1-1082] recombinant human histone deacetylase 4 (rhHDAC4) protein; FLAG (N); GST (given as 'with or without'); made in house; host or cells: HEK293-T
Experimental: HDAC4 Enzymatic Assay. HDAC4 activity of the various recombinant forms used through these studies was assayed using the small non-protein Lys(Tfa)-AMC as described previously (Bottomley et al. J. Biol. Chem. 2008, 283:26694-26704). The specificity of this assay is documented via its inhibition by a small molecule trifluoroacetylthiophene-trifluoromethylketone derivative (TFT-PIP) described previously (id.).
Thus, TasQ's inhibition of HDAC4/NCoR1 formation involves only its binding to HDAC4. To resolve whether such TasQ binding involves the ZCD vs. ZRD in HDAC4, we took advantage of the fact that while HDAC4 has only marginal deacetylase activity against acetylated lysine-containing proteins, it can deacetylate a small non-protein trifluoroacetamide substrate (a.k.a., Lys(Tfa)-AMC). This reaction is inhibited by a small molecule trifluoroacetylthiophene-trifluoromethylketone derivative [a.k.a., TFT-PIP (FIG. 16)] due to its binding to the catalytic Zn^2+ in the ZCD, which locks the ZRD in the open conformation (Bottomley 2008).

T1 sequence (P56524 whole entry): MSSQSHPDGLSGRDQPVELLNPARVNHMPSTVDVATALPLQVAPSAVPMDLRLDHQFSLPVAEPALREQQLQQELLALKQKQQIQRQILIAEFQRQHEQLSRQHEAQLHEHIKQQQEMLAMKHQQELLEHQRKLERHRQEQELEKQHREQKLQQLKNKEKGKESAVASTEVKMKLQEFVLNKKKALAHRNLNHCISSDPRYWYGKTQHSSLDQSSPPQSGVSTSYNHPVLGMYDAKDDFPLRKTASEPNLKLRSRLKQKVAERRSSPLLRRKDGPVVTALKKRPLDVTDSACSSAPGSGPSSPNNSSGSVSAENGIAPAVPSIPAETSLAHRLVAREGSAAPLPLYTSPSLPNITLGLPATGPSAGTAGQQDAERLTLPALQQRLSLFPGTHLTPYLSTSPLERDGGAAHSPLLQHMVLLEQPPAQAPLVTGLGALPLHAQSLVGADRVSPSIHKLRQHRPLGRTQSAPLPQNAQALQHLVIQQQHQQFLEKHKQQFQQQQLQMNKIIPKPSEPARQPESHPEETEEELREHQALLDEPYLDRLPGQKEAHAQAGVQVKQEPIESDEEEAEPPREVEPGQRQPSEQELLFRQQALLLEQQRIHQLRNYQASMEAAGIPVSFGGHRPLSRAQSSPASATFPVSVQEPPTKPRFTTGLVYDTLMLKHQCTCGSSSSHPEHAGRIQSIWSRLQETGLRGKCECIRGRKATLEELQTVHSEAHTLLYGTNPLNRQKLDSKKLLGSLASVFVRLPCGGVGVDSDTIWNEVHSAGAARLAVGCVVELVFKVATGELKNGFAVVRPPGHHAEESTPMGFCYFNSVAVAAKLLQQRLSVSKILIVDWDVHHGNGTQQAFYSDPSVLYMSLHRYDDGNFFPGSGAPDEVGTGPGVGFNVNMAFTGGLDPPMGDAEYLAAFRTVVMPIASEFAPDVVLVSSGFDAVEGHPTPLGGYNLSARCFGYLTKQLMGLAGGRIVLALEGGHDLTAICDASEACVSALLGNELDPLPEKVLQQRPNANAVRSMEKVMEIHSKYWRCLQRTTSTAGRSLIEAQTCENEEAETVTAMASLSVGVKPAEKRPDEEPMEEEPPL

Row | Structure (SMILES) | thymus weight (thymus; 10 mg/kg/d oral for 14 days) | Thymus Regression (% decrease weight +/− SD) (thymus; mice treated orally for 2 weeks, 10 mg/kg/d, n = 5/group) | CWR22-RH Tumor Growth (% inhibition +/− SD) [1] | inhibition of growth of LvCaP-3 xenografts at the end of study [2] | effect on enzymatic activity of fl-HDAC4 (fl-HDAC4)
1 | c1ccc2c(c1)cc1ccc3cccc4ccc2c1c34 [Benzo[α]pyrene, benzo[a]pyrene] | 27 ± 8 mg | 51 +/− 7% | <10% | completely lacks therapeutic efficacy | –
2 | O=C(c1ccc(C(=O)C(F)(F)F)s1)N1CCn2c(-c3ccccc3)cnc2C1 [TFT-PIP] | – | – | – | – | inhibited
